Structures can show the parent of a compound that is named as a salt.
Legend:
Type in all cases: cell-based
[1] = tested on: sonic hedgehog pathway; experiment: Human hedgehog reporter assay HEPM-GliLuc (HGL); conditions: HepM human embryonic palatal mesenchymal cells, Gli-luciferase reporter
Source text: (§1) Mouse (TM3: mouse Leydig cells; S12: mouse embryonic mesenchymal cells) and human (Daoy: human medulloblastoma cell; HepM: human embryonic palatal mesenchymal cell) cell lines are used to screen small molecules for their ability to modulate the activity of the sonic hedgehog pathway (Table 1, Table 2, and Table 3). Stable hedgehog pathway reporter cell lines are established by specific antibiotic selection following transfection of a reporter plasmid containing a luciferase gene located directly downstream from the gli promoter. Consequently, any observable changes in cellular luciferase activity may be attributed to changes in sonic hedgehog pathway activity in mouse and human cells, respectively, since gli is the major by-product of this pathway. To calculate activity, we generate an eleven point dose curve for each compound using 1:3 dilutions in 96 well assay plates. Each plate tested also contains low and high control to establish maximal pathway activation so to establish/compare a percentage activation of each tested compound (AMAX) on respective plates. Also we calculate EC50 values, or a concentration where the pathway will be exactly 50% activated, for each tested compound to determine potency. In these cell lines, compounds that register >20% AMAX values are considered active.
(§2) Stable hedgehog pathway reporter cell lines are established following specific antibiotic selection following transfection of a reporter plasmid In short, typically cells are plated in MicroTiter-plates at 10,000-20,000 cells per well, in growth media (containing 10%-20% FBS). After 48-72 hrs (HGL and DGL respectively) the media in the assay plates is switched to low-serum containing media (0.5% FBS). At that time compounds are added (at 1-5 μM) to the assay plates, in the presence or absence of hedgehog protein (octyl-modified version; 1-5 ng/ml). After another 24 hrs of incubation, the media from the assay plates is discarded and replaced with luciferase assay-mix. Subsequently, plates are incubated at RT for ˜15-30 mins and then read in a luminometer. [note: addition of the Hedgehog protein, although not critical, will sensitize the assay allowing the identification of weak actives].

[2] = tested on: sonic hedgehog pathway; experiment: Human hedgehog reporter assay Daoy-GliLuc (DGL); conditions: Daoy human medulloblastoma cells, Gli-luciferase reporter
Summary of the method: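 Agonist mode: cells carrying a luciferase gene downstream of the gli promoter received compound at 1–5 μM in 0.5% FBS for 24 h, optionally sensitised with 1–5 ng/ml octyl-modified hedgehog protein; luminescence gave % activation and EC50.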

[3] = tested on: sonic hedgehog pathway; experiment: Hedgehog pathway Gli-luciferase reporter assay, TM3 cells; conditions: TM3 mouse Leydig cells
Summary of the method: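 Reporter cells stably selected after gli-luciferase plasmid transfection; test article dosed over 11 points (1:3). Read as luminescence after 24 h treatment in 0.5% serum; activity >20% AMAX versus plate controls deemed active.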

[4] = tested on: sonic hedgehog pathway; experiment: Hedgehog pathway Gli-luciferase reporter assay, S12 cells; conditions: S12 mouse embryonic mesenchymal cells, read-out: Mouse S12 Avg. EC50
Source text: as §1, §2

[5] = read-out: Human Daoy (Gli-Luc) Avg. EC50

Compound	EC50 [1]	EC50 ([2]; read-out: Daoy Avg. EC50)	EC50 [3]	EC50 [4]	EC50 [2, 5]
CN[C@H]1CC[C@@H](N(Cc2cc(-c3ccc(N(C)C=O)cc3)ccc2OC)C(=O)c2sc3cccc(F)c3c2Cl)CC1 [Compound 347, 3-Chloro-4-fluoro-benzo[b]thiophene-2-carboxylic acid [4′-(formyl-methyl-amino)-4-methoxy-biphenyl-3-ylmethyl]-(4-methylamino-cyclohexyl)-amide trifluoroacetate]	< 50 nM	< 50 nM	< 50 nM	–	–
CN[C@H]1CC[C@@H](N(Cc2cc(-c3ccc(C(=O)C(F)(F)F)cc3)ccc2OC)C(=O)c2sc3c(F)ccc(F)c3c2Cl)CC1 [Compound 349, 3-Chloro-4,7-difluoro-benzo[b]thiophene-2-carboxylic acid [4-methoxy-4′-(2,2,2-trifluoro-acetyl)-biphenyl-3-ylmethyl]-(4-methylamino-cyclohexyl)-amide trifluoroacetate]	< 50 nM	< 50 nM	< 50 nM	–	–
CN[C@H]1CC[C@@H](N(Cc2cc(-c3cc(C)nc(C)c3)ccc2OC)C(=O)c2sc3c(F)ccc(F)c3c2Cl)CC1 [Compound 350, 3-Chloro-4,7-difluoro-benzo[b]thiophene-2-carboxylic acid [5-(2,6-dimethyl-pyridin-4-yl)-2-methoxy-benzyl]-(4-methylamino-cyclohexyl)-amide dihydrochloride]	50 to 250 nM	< 50 nM	< 50 nM	–	–
CN[C@H]1CC[C@@H](N(Cc2cc(-c3cc(C)nc(C)c3)ccc2OC)C(=O)c2sc3cccc(F)c3c2Cl)CC1 [Compound 353, 3-Chloro-4-fluoro-benzo[b]thiophene-2-carboxylic acid [5-(2,6-dimethyl-pyridin-4-yl)-2-methoxy-benzyl]-(4-methylamino-cyclohexyl)-amide dihydrochloride]	50 to 250 nM	50 to 250 nM	< 50 nM	–	–
CN[C@H]1CC[C@@H](N(Cc2cc(-c3ccnc(N(C)C)c3)ccc2OC)C(=O)c2sc3c(F)ccc(F)c3c2Cl)CC1 [Compound 358, 3-Chloro-4,7-difluoro-benzo[b]thiophene-2-carboxylic acid [5-(2-dimethylamino-pyridin-4-yl)-2-methoxy-benzyl]-(4-methylamino-cyclohexyl)-amide dihydrochloride]	< 50 nM	< 50 nM	< 50 nM	–	–
CN[C@H]1CC[C@@H](N(Cc2cc(-c3ccc(CS(C)(=O)=O)cc3)ccc2OC)C(=O)c2sc3c(F)ccc(F)c3c2Cl)CC1 [Compound 369, 3-Chloro-4,7-difluoro-benzo[b]thiophene-2-carboxylic acid (4′-methanesulfonylmethyl-4-methoxy-biphenyl-3-ylmethyl)-(4-methylamino-cyclohexyl)-amide hydrochloride]	–	–	–	< 50 nM	< 50 nM
CN[C@H]1CC[C@@H](N(Cc2cc(-c3ccc(NS(C)(=O)=O)cc3)ccc2OC)C(=O)c2sc3c(F)ccc(F)c3c2Cl)CC1 [Compound 370, 3-Chloro-4,7-difluoro-benzo[b]thiophene-2-carboxylic acid (4′-methanesulfonylamino-4-methoxy-biphenyl-3-ylmethyl)-(4-methylamino-cyclohexyl)-amide hydrochloride]	–	–	–	< 50 nM	< 50 nM
CN[C@H]1CC[C@@H](N(Cc2cc(-c3ccc(N(C)S(C)(=O)=O)cc3)ccc2OC)C(=O)c2sc3c(F)ccc(F)c3c2Cl)CC1 [Compound 371, 3-Chloro-4,7-difluoro-benzo[b]thiophene-2-carboxylic acid [4′-(methanesulfonyl-methyl-amino)-4-methoxy-biphenyl-3-ylmethyl]-(4-methylamino-cyclohexyl)-amide hydrochloride]	–	–	–	< 50 nM	< 50 nM
CNC1CCC(N(Cc2cc(-c3cccc(SC)c3)ccc2OC)C(=O)c2sc3c(F)ccc(F)c3c2Cl)CC1 (stereo not shown) [Compound 372, 3-Chloro-4,7-difluoro-benzo[b]thiophene-2-carboxylic acid (4-methoxy-3′-methylsulfanyl-biphenyl-3-ylmethyl)-(4-methylamino-cyclohexyl)-amide hydrochloride]	–	–	–	< 50 nM	< 50 nM
CNC1CCC(N(Cc2cc(-c3ccc(SC)cc3)ccc2OC)C(=O)c2sc3c(F)ccc(F)c3c2Cl)CC1 (stereo not shown) [Compound 373, 3-Chloro-4,7-difluoro-benzo[b]thiophene-2-carboxylic acid (4-methoxy-4′-methylsulfanyl-biphenyl-3-ylmethyl)-(4-methylamino-cyclohexyl)-amide hydrochloride]	–	–	–	< 50 nM	< 50 nM
CN[C@H]1CC[C@@H](N(Cc2cc(-c3cc[n+]([O-])cc3)ccc2OC)C(=O)c2sc3c(F)ccc(F)c3c2Cl)CC1 [Compound 374, 4-(3-((3-chloro-4,7-difluoro-N-((1s,4s)-4-(methylamino)cyclohexyl)benzo[b]thiophene-2-carboxamido)methyl)-4-methoxyphenyl)pyridine 1-oxide]	–	–	–	< 50 nM	< 50 nM
COc1ccc(-c2ccncc2)cc1CN(C(=O)c1sc2c(F)ccc(F)c2c1Cl)[C@H]1CC[C@@H](N)CC1 [Compound 375, N-((1r,4r)-4-aminocyclohexyl)-3-chloro-4,7-difluoro-N-(2-methoxy-5-(pyridin-4-yl)benzyl)benzo[b]thiophene-2-carboxamide hydrochloride]	–	–	–	< 50 nM	< 50 nM
CN[C@H]1CC[C@@H](N(Cc2cc(-c3cccc([S+](C)[O-])c3)ccc2OC)C(=O)c2sc3c(F)ccc(F)c3c2Cl)CC1 (stereo partly shown) [Compound 376, 3-Chloro-4,7-difluoro-benzo[b]thiophene-2-carboxylic acid (3′-methanesulfinyl-4-methoxy-biphenyl-3-ylmethyl)-(4-methylamino-cyclohexyl)-amide trifluoroacetate]	–	–	–	< 50 nM	< 50 nM
CNC1CCC(N(Cc2cc(-c3ccc(N)nc3C)ccc2OC)C(=O)c2sc3ccccc3c2Cl)CC1 (stereo not shown) [Compound 398, 3-Chloro-benzo[b]thiophene-2-carboxylic acid [5-(6-amino-2-methyl-pyridin-3-yl)-2-methoxy-benzyl]-(4-methylamino-cyclohexyl)-amide dihydrochloride]	1000 to 2500 nM	250 to 1000 nM	1000 to 2500 nM	–	–
CCOc1ccc(-c2ccc(NC)nc2)cc1CN(C(=O)c1sc2ccccc2c1Cl)[C@H]1CC[C@H](NC)CC1 [Compound 399, 3-Chloro-benzo[b]thiophene-2-carboxylic acid [2-ethoxy-5-(6-methylamino-pyridin-3-yl)-benzyl]-(4-methylamino-cyclohexyl)-amide dihydrochloride]	1000 to 2500 nM	250 to 1000 nM	1000 to 2500 nM	–	–
CCOc1ccc(-c2cnc(NC)nc2)cc1CN(C(=O)c1sc2ccccc2c1Cl)[C@H]1CC[C@H](NC)CC1 [Compound 402, 3-Chloro-benzo[b]thiophene-2-carboxylic acid [2-ethoxy-5-(2-methylamino-pyrimidin-5-yl)-benzyl]-(4-methylamino-cyclohexyl)-amide dihydrochloride]	250 to 1000 nM	50 to 250 nM	1000 to 2500 nM	–	–
CN[C@H]1CC[C@H](N(Cc2cc(-c3ccc(C(C)=O)cc3)ccc2F)C(=O)c2sc3ccccc3c2Cl)CC1 [Compound 419, 3-Chloro-benzo[b]thiophene-2-carboxylic acid (4′-acetyl-4-fluoro-biphenyl-3-ylmethyl)-(4-methylamino-cyclohexyl)-amide trifluoroacetate]	250 to 1000 nM	50 to 250 nM	< 50 nM	–	–
CN[C@H]1CC[C@H](N(Cc2cc(-c3ccc(C(=O)C(F)(F)F)cc3)ccc2F)C(=O)c2sc3ccccc3c2Cl)CC1 [Compound 424, 3-Chloro-benzo[b]thiophene-2-carboxylic acid [4-fluoro-4′-(2,2,2-trifluoro-acetyl)-biphenyl-3-ylmethyl]-(4-methylamino-cyclohexyl)-amide trifluoroacetate]	250 to 1000 nM	< 50 nM	< 50 nM	–	–
CN[C@H]1CC[C@@H](N(Cc2cc(-c3ccccc3)ccc2OC)C(=O)c2sc3ccccc3c2Cl)CC1 [Compound R3, 3-Chloro-benzo[b]thiophene-2-carboxylic acid (4-methoxy-biphenyl-3-ylmethyl)-(4-methylamino-cyclohexyl)-amide hydrochloride]	50 to 250 nM	50 to 250 nM	< 50 nM	–	–
